What was measured:
Format in all cases: cell-based
[1] = target: LPA1 receptor (native, systemic sclerosis dermal fibroblasts) (Homo sapiens, UniProt Q92633); assay: FLIPR calcium flux, primary SSc dermal fibroblasts; settings: agonist; 0.3% fatty acid-free human serum albumin; Gi/Go coupled
[2] = target: LPA2 receptor (Homo sapiens, UniProt Q9HBW0); assay: FLIPR calcium flux, CHO cells
[3] = target: LPA5 receptor (Homo sapiens, UniProt Q9H1C0); assay: FLIPR calcium flux, CHO cells
[4] = target: T1, LPA3 receptor (Homo sapiens, UniProt Q9UBY5); assay: FLIPR calcium flux, CHO cells
T1 sequence (Q9UBY5 1-353): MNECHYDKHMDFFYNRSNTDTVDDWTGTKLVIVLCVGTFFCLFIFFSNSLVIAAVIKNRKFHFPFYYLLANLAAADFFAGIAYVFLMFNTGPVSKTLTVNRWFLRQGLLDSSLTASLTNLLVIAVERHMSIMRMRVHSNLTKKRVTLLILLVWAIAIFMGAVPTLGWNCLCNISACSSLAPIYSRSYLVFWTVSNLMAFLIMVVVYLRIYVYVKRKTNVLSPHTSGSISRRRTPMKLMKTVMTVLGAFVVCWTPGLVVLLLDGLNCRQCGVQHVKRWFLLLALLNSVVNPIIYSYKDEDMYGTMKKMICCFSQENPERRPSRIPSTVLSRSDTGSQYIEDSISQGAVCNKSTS

Chain of LPA2 receptor (Q9HBW0 whole entry): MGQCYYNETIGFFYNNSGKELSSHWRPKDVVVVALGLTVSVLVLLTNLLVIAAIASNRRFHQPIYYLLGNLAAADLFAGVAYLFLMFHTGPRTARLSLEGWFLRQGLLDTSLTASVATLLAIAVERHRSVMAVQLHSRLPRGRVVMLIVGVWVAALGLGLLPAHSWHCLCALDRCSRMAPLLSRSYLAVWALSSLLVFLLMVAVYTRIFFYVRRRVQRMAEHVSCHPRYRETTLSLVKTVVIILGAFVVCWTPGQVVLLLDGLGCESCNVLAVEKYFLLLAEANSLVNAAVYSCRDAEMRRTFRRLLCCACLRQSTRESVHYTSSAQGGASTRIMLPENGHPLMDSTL
Chain of LPA5 receptor (Q9H1C0 whole entry): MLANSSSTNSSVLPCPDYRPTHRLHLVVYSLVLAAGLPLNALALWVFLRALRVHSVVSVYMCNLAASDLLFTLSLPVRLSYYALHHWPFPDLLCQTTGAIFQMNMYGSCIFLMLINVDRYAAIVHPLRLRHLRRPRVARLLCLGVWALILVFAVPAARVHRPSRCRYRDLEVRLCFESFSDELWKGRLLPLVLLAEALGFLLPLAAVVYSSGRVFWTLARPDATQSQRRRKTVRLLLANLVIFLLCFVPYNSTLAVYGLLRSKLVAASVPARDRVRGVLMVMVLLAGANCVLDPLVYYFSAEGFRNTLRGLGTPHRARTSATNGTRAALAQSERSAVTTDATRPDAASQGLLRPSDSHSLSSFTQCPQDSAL
Chain of LPA1 receptor (native, systemic sclerosis dermal fibroblasts) (Q92633 whole entry): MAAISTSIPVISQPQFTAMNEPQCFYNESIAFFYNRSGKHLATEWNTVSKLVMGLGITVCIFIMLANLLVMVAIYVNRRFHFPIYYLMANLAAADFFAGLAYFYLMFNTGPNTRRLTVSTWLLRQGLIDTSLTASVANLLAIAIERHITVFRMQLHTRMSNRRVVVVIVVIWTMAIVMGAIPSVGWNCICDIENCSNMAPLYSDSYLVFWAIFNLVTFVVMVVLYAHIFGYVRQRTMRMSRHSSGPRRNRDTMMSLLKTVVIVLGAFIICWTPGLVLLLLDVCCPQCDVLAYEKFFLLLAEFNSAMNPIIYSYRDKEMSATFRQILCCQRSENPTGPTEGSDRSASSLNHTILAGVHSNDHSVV

EC50 [1] [µM] | IC50 [2] [µM] | IC50 [3] [µM] | IC50 [4] [µM] | SMILES
0.15 ± 0.05 |  |  |  | CCCCCCCC/C=C\CCCCCCCC(=O)OC[C@@H](O)COP(=O)(O)O [LPA 18:1]
 | > 10 | > 10 | > 10 | COc1ccc(C(=O)NC2(C(=O)O)Cc3ccccc3C2)cc1OCCc1cccc(C)c1 [SAR100842, 2‐(4‐methoxy‐3‐(2‐m‐tolyl‐ethoxy)‐benzoylamino)‐indan‐2‐carboxylic acid]

— publication PMC7443477 (British Journal of Pharmacology, 2020)
